For one data set, the system named is Moraxella catarrhalis. Kind of data set: MIC, Moraxella catarrhalis (fastidious Gram negative, broth). The data set is classed as cell-based. The note with it: Mueller-Hinton broth with hemin and NAD, 24 hours at 37° C., 5×10^4 CFU/well. As to the method: (§1) The following results were obtained on a standard in-vitro test system. The activity is described in terms of the minimum inhibitory concentration (MIC) determined by the agar-dilution technique with an inoculum size of 10^4 CFU/spot. Typically, compounds are active in the range 0.01 to 256 μg/ml.
(§2) Streptococci and enterococci were tested on agar supplemented with 5% defibrinated horse blood, an inoculum of 10^4 CFU/spot and an incubation temperature of 37° C. in an atmosphere of 5% carbon dioxide for 48 hours—blood is required for the growth of some of the test organisms. Fastidious Gram negative organisms were tested in Mueller-Hinton broth, supplemented with hemin and NAD, grown aerobically for 24 hours at 37° C., and with an innoculum of 5×10^4 CFU/well.

For data set [1], the system named is Linezolid Resistant Streptococcus pneumoniae. In words: MIC, agar dilution, Linezolid Resistant Streptococcus pneumoniae. The data set is classed as cell-based. The note with it: agar with 5% defibrinated horse blood, 10^4 CFU/spot, 37° C., 5% carbon dioxide, 48 hours. As to the method: as §1, §2
Background: In agar dilution the substance is mixed into plates at graded concentrations.

The target of the next data set is T1, MAO-A (Homo sapiens, UniProt P21397).
T1 construct: made in house; host or cells: yeast
T1 sequence (P21397 1-527): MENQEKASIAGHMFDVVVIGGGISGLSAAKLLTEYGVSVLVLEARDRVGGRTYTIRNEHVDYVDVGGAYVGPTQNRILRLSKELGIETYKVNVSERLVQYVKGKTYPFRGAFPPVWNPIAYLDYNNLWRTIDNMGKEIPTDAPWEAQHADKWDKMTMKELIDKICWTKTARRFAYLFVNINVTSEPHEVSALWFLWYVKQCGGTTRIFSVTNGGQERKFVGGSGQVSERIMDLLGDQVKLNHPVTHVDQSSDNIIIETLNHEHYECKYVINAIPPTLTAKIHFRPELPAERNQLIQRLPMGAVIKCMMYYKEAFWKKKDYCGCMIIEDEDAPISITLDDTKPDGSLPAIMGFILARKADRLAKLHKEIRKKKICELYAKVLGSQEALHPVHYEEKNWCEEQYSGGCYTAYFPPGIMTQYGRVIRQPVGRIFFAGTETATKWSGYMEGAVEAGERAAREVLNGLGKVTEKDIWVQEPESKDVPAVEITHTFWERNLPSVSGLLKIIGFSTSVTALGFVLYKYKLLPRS
Kind of data set: MAO-A inhibition, standard in-vitro assay, human liver enzyme expressed in yeast. The note with it: read-out: Ki value against MAO-A. The data set is classed as biochemical. On the procedure: The activity of the compounds of the invention against MAO-A was tested using a standard in-vitro assay based on human liver enzyme expressed in yeast as described in Biochem. Biophys. Res. Commun. 1991, 181, 1084-1088.

Data set [2] concerns Staphylococcus aureus MRQR (methicillin resistant and quinolone resistant). In words: MIC, agar dilution, Staphylococcus aureus MRQR. The data set is classed as cell-based. The note with it: inoculum 10^4 CFU/spot, 37° C., 24 hours. On the procedure: as §1
(§3) Staphylococci were tested on agar, using an inoculum of 10^4 CFU/spot and an incubation temperature of 37° C. for 24 hours—standard test conditions for the expression of methicillin resistance.

The test system of data set [3] is Staphylococcus aureus MSQS (methicillin sensitive and quinolone sensitive). In words: MIC, agar dilution, Staphylococcus aureus MSQS. The data set is classed as cell-based. The note with it: inoculum 10^4 CFU/spot, 37° C., 24 hours. As to the method: as §1, §3
The subject of a further data set is Haemophilus influenzae. Kind of data set: MIC, Haemophilus influenzae (fastidious Gram negative, broth). Conditions: Mueller-Hinton broth with hemin and NAD, 24 hours at 37° C., 5×10^4 CFU/well. The data set is classed as cell-based. On the procedure:
as §1, §2

The test system of another data set is Streptococcus pneumoniae. Kind of data set: MIC, agar dilution, Streptococcus pneumoniae. The data set is classed as cell-based. Conditions: agar with 5% defibrinated horse blood, 10^4 CFU/spot, 37° C., 5% carbon dioxide, 48 hours. On the procedure:
as §1, §2

SMILES strings stand for the structures. In brackets after ≈: the same amount, converted by molar mass. A value given as a limit tells only on which side of the number the result lay.

By Ki is commonly meant a measure of affinity in units of concentration, obtained from inhibition or displacement. Usually melting point stands for the temperature of the solid-liquid transition. As to `O=C1O[C@@H](Cn2ccnn2)CN1c1ccc(-c2ccc(C3=NO[C@H](CN4CCOCC4)C3)nc2)c(F)c1` [Example 3, (5R)-3-(3-Fluoro-4-{6-[(5S)-5-(morpholin-4-ylmethyl)-4,5-dihydroisoxazol-3-yl]pyridin-3-yl}phenyl)-5-(1H-1,2,3-triazol-1-ylmethyl)-1,3-oxazolidin-2-one], the melting point was 230 °C. In the data set on Moraxella catarrhalis, this molecule gave an MIC of 1 µg/mL (≈ 1.97 µM). The same molecule yielded an MIC in data set [1] of 1 µg/mL (≈ 1.97 µM). In addition, the Ki on MAO-A was above 22000 nM. In data set [2], this molecule gave an MIC of 0.5 µg/mL (≈ 0.985 µM). The molecule also came in with an MIC in data set [3] of 0.5 µg/mL (≈ 0.985 µM). For the same molecule, in the data set with Haemophilus influenzae, the MIC is 8 µg/mL (≈ 15.8 µM). In the data set on Streptococcus pneumoniae, this molecule showed an MIC of 0.13 µg/mL (≈ 0.256 µM).

For the molecule `CN(CC(=O)O)CC(=O)N(C)C[C@@H]1CC(c2ccc(-c3ccc(N4C[C@H](Cn5ccnn5)OC4=O)cc3F)cn2)=NO1` [Example 24, N-{2-[{[(5S)-3-(5-{2-Fluoro-4-[(5R)-2-oxo-5-(1H-1,2,3-triazol-1-ylmethyl)-1,3-oxazolidin-3-yl]phenyl}pyridin-2-yl)-4,5-dihydroisoxazol-5-yl]methyl}(methyl)amino]-2-oxoethyl}-N-methylglycine], the melting point fell in the range of 135 to 145 °C.

Molecule `O=C(O)CNCC(=O)NC[C@@H]1CC(c2ccc(-c3ccc(N4C[C@H](Cn5ccnn5)OC4=O)cc3F)cn2)=NO1` [Example 25, N-[2-({[(5S)-3-(5-{2-Fluoro-4-[(5R)-2-oxo-5-(1H-1,2,3-triazol-1-ylmethyl)-1,3-oxazolidin-3-yl]phenyl}pyridin-2-yl)-4,5-dihydroisoxazol-5-yl]methyl}amino)-2-oxoethyl]glycine] returned a melting point of 200 to 210 °C.

`O=C1O[C@@H](Cn2ccnn2)CN1c1ccc(-c2ccc(C3=NO[C@H](Cn4ccnc4)C3)nc2)c(F)c1` [Example 26, (5R)-3-(3-Fluoro-4-{6-[(5S)-5-(1H-imidazol-1-ylmethyl)-4,5-dihydroisoxazol-3-yl]pyridin-3-yl}phenyl)-5-(1H-1,2,3-triazol-1-ylmethyl)-1,3-oxazolidin-2-one] yielded a melting point of 239 to 242 °C.

With `CN(CC(=O)O)CC(=O)NC[C@@H]1CC(c2ccc(-c3ccc(N4C[C@H](Cn5ccnn5)OC4=O)cc3F)cn2)=NO1` [Example 27, N-[2-({[(5S)-3-(5-{2-Fluoro-4-[(5R)-2-oxo-5-(1H-1,2,3-triazol-1-ylmethyl)-1,3-oxazolidin-3-yl]phenyl}pyridin-2-yl)-4,5-dihydroisoxazol-5-yl]methyl}amino)-2-oxoethyl]-N-methylglycine], the melting point lay in the range of 185 to 188 °C.

On to `N[C@@H](CC(=O)O)C(=O)NC[C@@H]1CC(c2ccc(-c3ccc(N4C[C@H](Cn5ccnn5)OC4=O)cc3F)cn2)=NO1` [Example 28, N^1-{[(5S)-3-(5-{2-Fluoro-4-[(5R)-2-oxo-5-(1H-1,2,3-triazol-1-ylmethyl)-1,3-oxazolidin-3-yl]phenyl}pyridin-2-yl)-4,5-dihydroisoxazol-5-yl]methyl}-L-α-asparagine], for which the melting point is 224 to 226 °C.

For the molecule `NC[C@@H]1CC(c2ccc(-c3ccc(N4C[C@H](Cn5ccnn5)OC4=O)cc3F)cn2)=NO1` [Reference Example 16, (5R)-3-(4-{6-[(5S)-5-(Aminomethyl)-4,5-dihydroisoxazol-3-yl]pyridin-3-yl}-3-fluorophenyl)-5-(1H-1,2,3-triazol-1-ylmethyl)-1,3-oxazolidin-2-one], the melting point was in the range of 119 to 122 °C. Besides, the Ki at MAO-A stood at 350 nM.

(Values after patent US20080064689A1, “3-[4-(6-Pyridin-3-Yl)-3-Phenyl] -5-(1H-1,2,3-Triazol-1-Ylmethyl)-1,3-Oxazolidin-2-Ones as Antibacterial Agents” (AstraZeneca AB, priority 2004, published 2008).)
